Assay results: paper PMC12040169 (PLOS Biology, 2025)

Test: in vitro
Settings: human, hela cells, % viability

Point of comparison: `FC(F)(F)c1nc2ccccc2nc1Sc1nc[nH]n1` [CBK093808], viability at 28.5 h, 10 µM 87.6%. Against it:
- Nc1nnc(Sc2nccnc2N2CCCC2)s1 [CBK093804] — higher, 103%
- c1csc(Sc2nccnc2N2CCCC2)n1 [CBK093805] — higher, 107%
- c1cc(Sc2nccnc2N2CCCC2)ccn1 [CBK093807] — higher, 92.3%
- N#Cc1ccc(-c2cnc(NC(=O)C(F)(F)F)c(-c3ccc(C(=O)N4CCOCC4)cc3)n2)cc1 [CBK093819] — higher, 94.2%
- Cc1c(Nc2ncnc3sc4c(c23)CCCC4)c(=O)n(-c2ccccc2)n1C [CBK093912] — higher, 93.1%
- CCc1ccc(S(=O)(=O)N2CCN(C(c3ccccc3)c3ccccc3)CC2)cc1 [CBK093948] — higher, 98.6%
- Cc1ccc(-c2csc(NC(=O)c3ccc(S(=O)(=O)N4CCOCC4)cc3)n2)cc1 [CBK094024] — higher, 93.4%
- Cc1ccc(-n2c(C)c([N+](=O)[O-])c3ccc(O)cc32)cc1 [CBK094246] — lower, 86.2%
- OC(CN1CCNCC1)Cn1c2ccc(Cl)cc2c2cc(Cl)ccc21 (stereo not drawn) [CBK094277G] — lower, 68.1%
- OC[C@H]1CCCN1c1nc(Br)cn2c(-c3ccccn3)cnc12 [CBK094394] — higher, 100%
- COc1ccc(NS(=O)(=O)c2cc(C(=O)O)c(Cl)cc2Cl)cc1 [CBK095077] — higher, 89.7%
- O=C(Oc1ccc(-n2ccnc2)cc1)c1ccc(-c2ccccc2)cc1 [CBK095145] — higher, 93.3%
- CCOC(=O)c1cnc2ccc(OC)cc2c1Nc1ccc(OC)cc1 [CBK095337] — higher, 93.7%
- Clc1ccc(Cl)c(-c2nc3ccccc3o2)n1 [CBK095353] — higher, 91.6%
- CCOCc1c(O)ccc2c([N+](=O)[O-])c(C)n(-c3ccc(OC)cc3)c12 [CBK095589] — higher, 87.8%
- COc1ccc(S(=O)(=O)Nc2nc3c(s2)C(=O)CC(C)(C)C3)cc1 [CBK095611] — higher, 94.7%
- O=C1NN(c2ccc(F)c(Cl)c2)C(=O)/C1=C/c1ccc(-c2ccc(Cl)cc2)o1 [CBK095978] — higher, 98.1%
- Cc1cc2nc(-c3ccc(C(=O)O)cc3)[nH]c2cc1C [CBK096054] — higher, 91.6%
- CCCCC(=O)Nc1nc(-c2ccc(S(=O)(=O)N3CCOCC3)cc2)cs1 [CBK096107] — lower, 86%
- CCOC(=O)C1CCCCN1S(=O)(=O)c1ccc(Br)s1 (stereo not drawn) [CBK096110] — higher, 102%
- CC(C)C(=O)Nc1cccc(-c2cn3ccsc3n2)c1 [CBK096253] — lower, 67%
- COc1cccc(C(=O)Nc2nc(-c3ccc(S(=O)(=O)N4CCCC4)cc3)cs2)c1 [CBK096257] — higher, 89%
- N#Cc1ccc(-c2nc3cc(Cl)c(F)cc3[nH]2)cc1 [CBK096290] — higher, 90.6%
- O=C(Nc1nc(-c2ccc(S(=O)(=O)N3CCCC3)cc2)cs1)C1COc2ccccc2O1 (stereo not drawn) [CBK096353] — higher, 101%
- O=S(=O)(Nc1nc2c(s1)CCCC2)c1cc(Cl)ccc1Cl [CBK096578] — higher, 98.7%
- CN(C)c1ccc(/C=C2/C(=N)N3N=C(c4ccccc4Cl)SC3=NC2=O)cc1 [CBK097554] — higher, 94.6%
- COc1cc(OC)cc(C(=O)Nc2cccc(-c3nc4ccccc4o3)c2)c1 [CBK097706] — higher, 95.5%
- O=S(=O)(Nc1nc2c(s1)CCCC2)c1ccc(Br)cc1 [CBK097787] — higher, 89.7%
- CCN(CC)c1ccc(NC(=O)c2cccc(OC)c2OC)c(C)c1 [CBK097801] — higher, 92.2%
- CCCCOc1ccc2c(C(F)(F)F)cc(=O)oc2c1 [CBK097821] — higher, 104%
- Cc1cccc(S(=O)(=O)N2CCN(C)CC2)c1 [CBK097893] — higher, 93.6%
- O=S(=O)(c1cc(Cl)ccc1Cl)N1CCSC1 [CBK097980] — higher, 99.4%
- Cc1csc2nc(-c3ccccc3)cn12 [CBK098072] — higher, 108%
- CCOC(=O)c1cnn(-c2cc(Oc3ccccc3)ncn2)c1N [CBK098284] — higher, 105%
- N#CC1CCCc2c1[nH]c1ccccc21 (stereo not drawn) [CBK098397] — lower, 74.9%
- CCOC(=O)c1cnc(SCc2nc(N)nc(Nc3ccc(F)cc3)n2)nc1N [CBK098477] — lower, 82.3%
- COC(=O)c1cnn(-c2cc(Oc3ccccc3C)ncn2)c1N [CBK098668] — higher, 102%
- COc1cc(OC)cc(C(=O)Nc2ccc(C(=O)c3ccccc3)cc2)c1 [CBK098732] — higher, 106%
- CCc1ccc(C2CC(=O)c3c(ccc4ccccc34)N2)cc1 (stereo not drawn) [CBK098787] — higher, 93.8%
- CCCOc1c(Cl)cc(/C=C2\N=C(c3ccc(OC)cc3)OC2=O)cc1OCC [CBK098846] — higher, 93.3%
- CCN1C(=O)C(F)(CC)C(=O)c2ccccc21 (stereo not drawn) [CBK098854] — higher, 107%
- O=c1[nH]c2ccccc2n1C1CCN(CCOC(c2ccc(F)cc2)c2ccc(F)cc2)CC1 [CBK099807G] — higher, 101%
- COc1cc(OC)cc(C(=O)Nc2nnc(C(F)(F)F)s2)c1 [CBK099828] — higher, 88.7%
- Cc1ccc(-c2csc3ncn(Cc4ccccc4C)c(=O)c23)cc1C [CBK099921] — higher, 104%
- O=C(Nc1ccc(-c2ccccc2C(F)(F)F)s1)C(F)(F)F [CBK099942] — higher, 96.3%
- OCCn1c(S)nnc1-c1ccccc1 [CBK100025] — lower, 85.4%
- CCN1CCN(S(=O)(=O)c2ccc(Br)cc2)CC1 [CBK100197] — higher, 99.7%
- CCN1CCN(S(=O)(=O)c2ccccc2F)CC1 [CBK100558] — higher, 104%
- Nc1ncc2cc(C(F)(F)F)ccc2n1 [CBK100705] — higher, 107%
- CC(=O)c1cc2c(N)c(C(N)=O)sc2nc1C [CBK100769] — higher, 102%
- CCOC(=O)c1cc2c3ccccc3n(CC)c2nc1N [CBK100822] — higher, 94%
- CC(=O)NCC(=O)N(c1ccccc1)C1(C(=O)NC(c2ccccc2)c2ccccc2)CCCC1 [CBK100884] — higher, 102%
- O=C(O)c1cc(Br)cc2c3c([nH]c12)CCCC3 [CBK100973] — higher, 99.7%
- N=C1NC(=O)/C(=C/c2ccc(O)c(Cl)c2)S1 [CBK100992] — higher, 109%
- O=C(O)c1cccc2c1C(=O)N(c1ccccc1)C2 [CBK101054] — higher, 91.4%
- COc1ccc(-n2nnnc2SCc2ccc(Cl)cc2)cc1 [CBK101068] — lower, 60.7%
- CCN(CC)CCNC(=O)C1CCCCN1S(=O)(=O)c1ccc(C)cc1 (stereo not drawn) [CBK101088] — higher, 89.9%
- COc1cc(C(=O)Nc2cc(-c3nc4ncccc4o3)ccc2C)cc(OC)c1OC [CBK101133] — higher, 97%
- CCn1c2ccccc2c2cc(/C=N/N3CCN(c4ccccc4OC)CC3)ccc21 [CBK101168] — higher, 92.6%
- COc1ccccc1N(CC(=O)NC(C(C)C)C(C)C)S(=O)(=O)c1ccccc1 [CBK101384] — higher, 91.4%
- O=C1NCCc2c1[nH]c1ccccc21 [CBK101624] — lower, 65.5%
- C=CCn1c(SCC(=O)Nc2ccc(C(=O)OC)cc2)nnc1-c1ccc(Br)cc1 [CBK101797] — higher, 92.8%
- CCC1=NN2C(=N)/C(=C/c3ccc(OC)cc3)C(=O)N=C2S1 [CBK101905] — higher, 95.6%
- COc1cc(/C=C2\NC(=S)NC2=O)c(Cl)cc1O [CBK102003] — lower, 65.5%
- CC1CCN(S(=O)(=O)c2cccs2)CC1 [CBK102093] — higher, 118%
